Tests used:
ACO2 and ISCU [1] = assay: Immunoblot analysis of mitochondrial Fe-S proteins in FRDA cardiomyocytes; format: cell-based, human; details: fasudil 1 μM, KD025 1 μM, ripasudil 0.5 μM
mutant FXN gene = assay: Massively parallel short-read sequencing (RNA-seq) of FXN transcript levels in FRDA neurons; format: cell-based, human; details: vs DMSO, Illumina platform
ACO2 and ISCU [2] = assay: Immunoblot analysis of mitochondrial Fe-S proteins in FRDA neurons; format: cell-based, human; details: fasudil 1 μM, KD025 1 μM, ripasudil 0.5 μM
FRDA cardiomyocytes = assay: Mitochondrial oxygen consumption rate (Agilent Seahorse XF Analyzer) in FRDA cardiomyocytes; format: cell-based, human; details: small molecule ROCK1/2 inhibitor
From the text: (§1) FIGS. 3A-D. Inhibition of protein kinase FXN-RFs can ameliorate characteristic mitochondrial defects of FRDA post-mitotic neurons and cardiomyocytes. (A, B) Quantification of flow cytometry analysis of normal and FRDA neurons (A) or normal and FRDA CMCs (B) expressing an FXN-RF shRNA and stained with MitoSOX. (C, D) Analysis of the mitochondrial oxygen consumption rate in normal and FRDA neurons (C) or normal and FRDA CMCs (D) expressing an FXN-RF shRNA. […] (C, D) Analysis of the mitochondrial oxygen consumption rate in FRDA neurons (C) or FRDA CMCs (D) treated with a small molecule ROCK1/2 inhibitor. (E, F) Immunoblot analysis showing levels of mitochondrial proteins ACO and ISCU in FRDA neurons (E) or FRDA CMCs (F) treated with fasudil (1 μM), KD025 (1 μM), or ripasudil (0.5 μM). […] We next asked whether FXN-RF inhibition could ameliorate two characteristic mitochondrial defects of FRDA neurons and cardiomyocytes: increased levels of reactive oxygen species (ROS) and decreased oxygen consumption. In the first set of experiments, FRDA neurons and cardiomyocytes expressing a protein kinase FXN-RF shRNA were stained with MitoSOX (an indicator of mitochondrial superoxide levels and mitochondrial ROS production) followed by flow cytometry analysis. As expected. FRDA neurons and cardiomyocytes had increased levels of mitochondrial ROS production compared to normal neurons and cardiomyocytes (FIGS. 3A, B). […] In the second set of experiments, we measured mitochondrial oxygen consumption rate, which is related to ATP production, using an Agilent Seahorse XF Analyzer. As expected, mitochondrial oxygen consumption rate in FRDA neurons and cardiomyocytes was ˜60% of the level observed in normal neurons and cardiomyocytes (FIGS. 3C, D).

FRDA neurons = assay: Mitochondrial oxygen consumption rate (Agilent Seahorse XF Analyzer) in FRDA neurons; format: cell-based, human; details: small molecule ROCK1/2 inhibitor
From the text: as §1

ROCK1/2 = details: literature; cited from earlier work
ROCK1 = assay: qRT-PCR analysis monitoring ROCK1 expression (shRNA knockdown) in FRDA (GM23404) iPSCs; format: cell-based, human; details: FRDA (GM23404) iPSCs expressing the shRNA
From the text: (§2) FIGS. 4A-E. Identification of ROCK2 as a protein kinase that mediates repression of the mutant FXN gene. (A) qRT-PCR analysis monitoring ROCK1 and ROCK2 expression in FRDA (GM23404) iPSCs expressing the two ROCK1 shRNAs used in the experiments shown in FIGS. 1-3 (hereafter called ROCK1-1 and ROCK1-2). […] (B) qRT-PCR analysis monitoring knockdown efficiencies of selective ROCK1 (ROCK1-3) and ROCK2 shRNAs.
(§3) Of the 8 new FXN-RFs that we identified, we are particularly enthusiastic about ROCK1, a serine-threonine kinase and major effector of the small GTPase RhoA (Schofield and Bernard, Crit Rev Biochem Mol Biol, 2013, 48 (4): 301-316. ROCK1 phosphory lates a variety of substrates, some of which can affect cell signaling pathways, such as PI3K/AKT (Ruth et al., J Invest Dermatol, 2006, 126 (4): 862-868), and transcription factors, such as NF-kB (Shimizu et al., Mol Hum Reprod, 2007, 13 (3): 181-187) and Runx2 (Huang et al., Exp Ther Med, 2018, 15 (5): 4457-4464). In addition to ROCK1, mammalian cells express another ROCK isoform encoded by a distinct gene, ROCK2. […] ROCK1 and ROCK2 share ˜65% overall amino acid identity and 92% identity in their kinase domains, with 100% identity within their ATP-binding pockets (Nakagawa et al., FEBS Lett, 1996, 392 (2): 189-193; Takahashi et al., Genomics, 1999, 55 (2): 235-237). […] Thus, both ROCK1 and ROCK2 are protein kinase FXN-RFs.

ROCK2 = assay: qRT-PCR analysis monitoring ROCK2 expression (shRNA knockdown) in FRDA (GM23404) iPSCs; format: cell-based, human; details: FRDA (GM23404) iPSCs expressing the shRNA
From the text: as §2, §3

Compound	levels of ACO2 (ACO2 and ISCU [1])	levels of ISCU (ACO2 and ISCU [1])	FXN transcript levels (RNA-seq) (mutant FXN gene)	levels of ACO2 (ACO2 and ISCU [2])	levels of ISCU (ACO2 and ISCU [2])	mitochondrial oxygen consumption rate (FRDA cardiomyocytes)	mitochondrial oxygen consumption rate (FRDA neurons)	oral activity (ROCK1/2)	tolerability / adverse effects (ROCK1/2)	ROCK1 expression (knockdown) (ROCK1)	ROCK2 expression (knockdown) (ROCK2)
CC(C)NC(=O)COc1cccc(-c2nc(Nc3ccc4[nH]ncc4c3)c3ccccc3n2)c1 [KD025]	increased levels of ACO2 and ISCU comparable to that observed in normal neurons and cardiomyocytes	increased levels of ACO2 and ISCU comparable to that observed in normal neurons and cardiomyocytes	Upregulation of the mutant FXN gene	increased levels of ACO2 and ISCU comparable to that observed in normal neurons and cardiomyocytes	increased levels of ACO2 and ISCU comparable to that observed in normal neurons and cardiomyocytes	–	–	–	–	–	–
C[C@@H](N)[C@H]1CC[C@H](C(=O)Nc2ccncc2)CC1.Cl.Cl [Y27632, (+)-(R)-trans-4-(1-aminoethyl)-N-(4-pyridyl)cyclohexanecarboxamide dihydrochloride]	–	–	–	–	–	increased mitochondrial oxygen consumption rate	increased mitochondrial oxygen consumption rate	–	–	–	–
O=S(=O)(c1cccc2cnccc12)N1CCCNCC1 [fasudil, 1-(5-isoquinolinesulfonyl)-homopiperazine]	increased levels of ACO2 and ISCU comparable to that observed in normal neurons and cardiomyocytes	increased levels of ACO2 and ISCU comparable to that observed in normal neurons and cardiomyocytes	Upregulation of the mutant FXN gene	increased levels of ACO2 and ISCU comparable to that observed in normal neurons and cardiomyocytes	increased levels of ACO2 and ISCU comparable to that observed in normal neurons and cardiomyocytes	increased mitochondrial oxygen consumption rate	increased mitochondrial oxygen consumption rate	orally active	well tolerated without adverse effects	–	–
C[C@H]1CNCCCN1S(=O)(=O)c1cccc2cncc(F)c12 [ripasudil, 4-fluoro-5-[[(2S)-2-methyl-1,4-diazepan-1-yl]sulfonyl]isoquinoline]	increased levels of ACO2 and ISCU comparable to that observed in normal neurons and cardiomyocytes	increased levels of ACO2 and ISCU comparable to that observed in normal neurons and cardiomyocytes	–	increased levels of ACO2 and ISCU comparable to that observed in normal neurons and cardiomyocytes	increased levels of ACO2 and ISCU comparable to that observed in normal neurons and cardiomyocytes	increased mitochondrial oxygen consumption rate	increased mitochondrial oxygen consumption rate	orally active	well tolerated without adverse effects	–	–
ROCK1-1: ROCK1 shRNA (1), SEQ ID NO: 11; knocks down both ROCK1 and ROCK2 (CCGGCGGGTTGTTCAGATTGAGAAACTCGAGTTTCTCAATCTGAACAACCCGTTTTTG)	–	–	–	–	–	–	–	–	–	knocked down both ROCK1 and ROCK2	knocked down both ROCK1 and ROCK2
ROCK1-2: ROCK1 shRNA (2), SEQ ID NO: 12; knocks down both ROCK1 and ROCK2 (CCGGGCATTCCAAGATGATCGTTATCTCGAGATAACGATCATCTTGGAATGCTTTTTG)	–	–	–	–	–	–	–	–	–	knocked down both ROCK1 and ROCK2	knocked down both ROCK1 and ROCK2
ROCK1-3: selective ROCK1 shRNA (3), SEQ ID NO: 13 (CCGGGCACCAGTTGTACCCGATTTACTCGAGTAAATCGGGTACAACTGGTGCTTTTTG)	–	–	–	–	–	–	–	–	–	knocked down ROCK1	knocked down ROCK1 but not ROCK2
ROCK2 shRNA: selective ROCK2 shRNA, SEQ ID NO: 14 (CCGGGCACCAGTTGTACCCGATTTACTCGAGTAAATCGGGTACAACTGGTGCTTTTTG)	–	–	–	–	–	–	–	–	–	knocked down ROCK2 but not ROCK1	knocked down ROCK2

Reference: patent US12281308B2, “Inhibition of protein kinases to treat Friedreich ataxia” (University of Massachusetts, priority 2018, dated 2025)
